Assay results: ChEMBL document CHEMBL4725465 (ACS Med Chem Lett, 2020)
Where a SMILES comes first, the peptide text is derived from it. [ ]: non-standard residue; d: D form. The star is where a group is joined. Gly(N-(2R-Ph-propyl)) = C[C@@H](CNCC(=O)O)c1ccccc1; Piperidin1yl(4-NH2,4-COOH) = NC1(C(=O)O)CCN(*)CC1; N(Indan-2-yl)Gly = O=C(O)CNC1Cc2ccccc2C1; Gly(NCH2CH2Ph) = O=C(O)CNCCc1ccccc1; Morpholide = C1CN(*)CCO1; X1 = CNC(=O)NC1CCN(*)CC1

Experiments:
[1] = target: Kappa-type opioid receptor (Homo sapiens, UniProt P41145); experiment: Agonist activity at human kappa opioid receptor expressed in HEK293 cells assessed as inhibition of forskolin-induced cAMP accumulation measured after 5 hrs by One-Glo luciferase assay; format: functional, cell-based
Chain of Kappa-type opioid receptor (P41145 whole entry): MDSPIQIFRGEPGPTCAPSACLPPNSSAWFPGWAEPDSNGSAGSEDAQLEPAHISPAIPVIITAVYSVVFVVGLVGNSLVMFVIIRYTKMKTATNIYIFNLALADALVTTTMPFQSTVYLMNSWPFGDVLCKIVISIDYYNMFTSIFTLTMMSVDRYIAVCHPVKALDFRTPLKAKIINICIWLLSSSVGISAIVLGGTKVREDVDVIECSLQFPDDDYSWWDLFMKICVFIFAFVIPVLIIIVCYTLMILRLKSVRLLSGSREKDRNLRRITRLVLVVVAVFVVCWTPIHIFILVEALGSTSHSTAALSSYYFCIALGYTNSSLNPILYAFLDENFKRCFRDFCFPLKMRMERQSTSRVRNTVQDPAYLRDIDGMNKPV

[2] = AUC (0 to t) in Beagle dog at 0.5 mg/kg, iv measured up to 24 hrs; format: ADME, organism-based, Canis lupus familiaris; design: route intravenous, dose 0.5 mg/kg, time <=24; settings: in vivo
[3] = target: Mu-type opioid receptor (Homo sapiens, UniProt P35372); experiment: Agonist activity at human mu opioid receptor assessed as inhibition of forskolin-induced cAMP accumulation; format: ADME
Chain of Mu-type opioid receptor (P35372 whole entry): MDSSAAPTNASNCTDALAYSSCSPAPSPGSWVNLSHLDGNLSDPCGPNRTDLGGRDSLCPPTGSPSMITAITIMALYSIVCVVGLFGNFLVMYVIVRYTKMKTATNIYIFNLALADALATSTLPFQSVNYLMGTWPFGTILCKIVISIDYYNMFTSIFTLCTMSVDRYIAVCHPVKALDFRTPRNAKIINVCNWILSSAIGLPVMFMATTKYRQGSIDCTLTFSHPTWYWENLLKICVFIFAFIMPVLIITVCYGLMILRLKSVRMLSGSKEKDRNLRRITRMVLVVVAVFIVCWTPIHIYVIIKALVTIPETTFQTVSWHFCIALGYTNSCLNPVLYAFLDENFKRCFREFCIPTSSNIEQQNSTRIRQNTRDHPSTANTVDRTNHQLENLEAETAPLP

[4] = Clearance in ICR mouse at 1 mg/kg, iv measured up to 24 hrs; format: ADME, organism-based; settings: in vivo
[5] = target: T1, Cytochrome P450 3A4 (Homo sapiens, UniProt P08684); experiment: Inhibition of CYP3A4 in human pooled liver microsomes using midazolam as substrate measured up to 20 mins by UHPLC-MS/MS analysis; format: ADME
T1 sequence (P08684 whole entry): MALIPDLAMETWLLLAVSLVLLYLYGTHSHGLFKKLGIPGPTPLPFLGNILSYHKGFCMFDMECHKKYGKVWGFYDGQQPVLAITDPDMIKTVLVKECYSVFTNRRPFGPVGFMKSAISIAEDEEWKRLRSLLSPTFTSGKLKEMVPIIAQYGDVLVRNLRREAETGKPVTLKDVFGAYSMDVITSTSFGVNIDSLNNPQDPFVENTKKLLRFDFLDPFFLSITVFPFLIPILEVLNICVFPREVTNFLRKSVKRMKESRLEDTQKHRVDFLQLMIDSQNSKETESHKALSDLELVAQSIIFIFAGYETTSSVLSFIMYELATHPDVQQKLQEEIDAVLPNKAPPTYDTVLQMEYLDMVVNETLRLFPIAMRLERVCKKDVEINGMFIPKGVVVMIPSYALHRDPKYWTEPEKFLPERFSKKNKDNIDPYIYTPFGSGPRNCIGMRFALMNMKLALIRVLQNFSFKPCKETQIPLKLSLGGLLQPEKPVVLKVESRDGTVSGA

[6] = target: Cytochrome P450 2D6 (Homo sapiens, UniProt P10635); experiment: Inhibition of CYP2D6 in human pooled liver microsomes using dextromethorphan as substrate measured up to 20 mins by UHPLC-MS/MS analysis; format: ADME
Chain of Cytochrome P450 2D6 (P10635 whole entry): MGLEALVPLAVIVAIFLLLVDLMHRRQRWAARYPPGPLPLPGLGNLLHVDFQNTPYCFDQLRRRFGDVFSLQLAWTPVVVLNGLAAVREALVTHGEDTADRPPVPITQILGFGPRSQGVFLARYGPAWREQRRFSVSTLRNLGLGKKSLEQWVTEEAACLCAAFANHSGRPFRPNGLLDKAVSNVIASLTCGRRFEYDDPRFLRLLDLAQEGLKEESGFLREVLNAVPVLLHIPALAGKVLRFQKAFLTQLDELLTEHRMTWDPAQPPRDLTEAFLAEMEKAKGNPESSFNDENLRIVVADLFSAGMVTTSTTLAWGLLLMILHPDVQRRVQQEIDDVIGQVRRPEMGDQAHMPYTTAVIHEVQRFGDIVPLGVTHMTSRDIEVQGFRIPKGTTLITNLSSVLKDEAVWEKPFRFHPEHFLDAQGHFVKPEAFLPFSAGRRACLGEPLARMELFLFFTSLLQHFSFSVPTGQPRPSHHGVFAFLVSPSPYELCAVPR

[7] = Apparent volume of distribution in ICR mouse at 1 mg/kg, iv measured up to 24 hrs; format: ADME, organism-based; settings: in vivo, read-out: Vz
[8] = AUC (0 to t) in Sprague-Dawley rat at 1 mg/kg, iv measured up to 24 hrs; format: ADME, organism-based; design: route intravenous, dose 1 mg/kg, time <=24; settings: in vivo
[9] = target: Cytochrome P450 2C9 (Homo sapiens, UniProt P11712); experiment: Inhibition of CYP2C9 in human pooled liver microsomes using tolbutamide as substrate measured up to 20 mins by UHPLC-MS/MS analysis; format: ADME
Chain of Cytochrome P450 2C9 (P11712 whole entry): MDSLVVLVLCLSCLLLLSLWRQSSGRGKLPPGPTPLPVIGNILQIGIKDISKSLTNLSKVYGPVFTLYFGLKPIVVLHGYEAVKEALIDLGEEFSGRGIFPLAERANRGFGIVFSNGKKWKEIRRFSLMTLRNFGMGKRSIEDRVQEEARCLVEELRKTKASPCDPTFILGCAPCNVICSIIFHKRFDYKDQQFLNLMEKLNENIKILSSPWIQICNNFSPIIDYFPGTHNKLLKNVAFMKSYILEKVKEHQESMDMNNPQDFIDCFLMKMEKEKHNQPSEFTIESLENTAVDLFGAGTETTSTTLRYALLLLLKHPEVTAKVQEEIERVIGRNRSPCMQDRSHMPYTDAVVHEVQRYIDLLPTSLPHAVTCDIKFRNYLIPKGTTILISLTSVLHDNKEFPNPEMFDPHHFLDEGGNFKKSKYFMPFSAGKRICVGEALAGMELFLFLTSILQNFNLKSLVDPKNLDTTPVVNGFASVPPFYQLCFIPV

[10] = test system: Rattus norvegicus; experiment: Antiinflammatory activity in carrageenan-induced pain in Wistar rat model assessed as effect on hindpaw withdrawal threshold at 0.03 to 0.3 mg/kg, iv administered 4 hrs post-carrageenan challenge and measured for 30 mins after compound administration by Von-Frey test relative to control; format: functional; settings: dose mg/kg 0.03-0.3, 0.5 h
[11] = Half life in rat liver microsomes; format: ADME, Microsome
[12] = Clearance in Beagle dog at 0.5 mg/kg, iv measured up to 24 hrs; format: ADME, organism-based, Canis lupus familiaris; settings: in vivo
[13] = Half life in dog liver microsomes; format: ADME, Canis lupus familiaris, Microsome
[14] = AUC (0 to t) in ICR mouse at 1 mg/kg, iv measured up to 24 hrs; format: ADME, organism-based; design: route intravenous, dose 1 mg/kg, time 24 hrs; settings: in vivo
[15] = Apparent volume of distribution in Sprague-Dawley rat at 1 mg/kg, iv measured up to 24 hrs; format: ADME, organism-based; settings: in vivo, read-out: Vz
[16] = Apparent volume of distribution in Beagle dog at 0.5 mg/kg, iv measured up to 24 hrs; format: ADME, organism-based, Canis lupus familiaris; settings: in vivo, read-out: Vz
[17] = Half life in Beagle dog at 0.5 mg/kg, iv measured up to 24 hrs; format: ADME, organism-based, Canis lupus familiaris; settings: in vivo
[18] = target: Delta-type opioid receptor (Homo sapiens, UniProt P41143); experiment: Agonist activity at human delta opioid receptor assessed as inhibition of forskolin-induced cAMP accumulation
Chain of Delta-type opioid receptor (P41143 whole entry): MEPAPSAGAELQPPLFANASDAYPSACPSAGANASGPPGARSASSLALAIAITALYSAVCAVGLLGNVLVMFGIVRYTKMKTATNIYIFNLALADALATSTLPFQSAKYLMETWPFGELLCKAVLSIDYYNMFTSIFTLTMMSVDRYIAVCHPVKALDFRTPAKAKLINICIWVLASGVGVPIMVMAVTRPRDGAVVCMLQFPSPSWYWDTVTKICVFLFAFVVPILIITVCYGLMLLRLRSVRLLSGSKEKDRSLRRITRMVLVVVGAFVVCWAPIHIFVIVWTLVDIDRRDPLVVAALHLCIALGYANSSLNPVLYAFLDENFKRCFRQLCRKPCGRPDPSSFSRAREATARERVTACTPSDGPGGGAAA

[19] = target: T2, Cytochrome P450 1A2 (Homo sapiens, UniProt P05177); experiment: Inhibition of CYP1A2 in human pooled liver microsomes using phenacetin as substrate measured up to 20 mins by UHPLC-MS/MS analysis; format: ADME
T2 sequence (P05177 whole entry): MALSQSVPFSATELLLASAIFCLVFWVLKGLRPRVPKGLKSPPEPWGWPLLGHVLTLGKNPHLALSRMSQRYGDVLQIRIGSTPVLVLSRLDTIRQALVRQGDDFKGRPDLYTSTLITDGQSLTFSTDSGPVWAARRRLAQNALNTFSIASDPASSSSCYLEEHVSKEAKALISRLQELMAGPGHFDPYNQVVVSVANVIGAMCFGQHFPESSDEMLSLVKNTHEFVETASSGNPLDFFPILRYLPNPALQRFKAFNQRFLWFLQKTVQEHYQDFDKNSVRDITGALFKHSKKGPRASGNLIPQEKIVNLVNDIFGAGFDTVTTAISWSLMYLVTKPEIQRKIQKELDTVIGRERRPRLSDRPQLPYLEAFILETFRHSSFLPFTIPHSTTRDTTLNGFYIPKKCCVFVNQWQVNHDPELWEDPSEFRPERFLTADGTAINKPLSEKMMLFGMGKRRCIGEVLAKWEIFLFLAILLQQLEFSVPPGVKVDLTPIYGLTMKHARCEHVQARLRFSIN

[20] = Clearance in Sprague-Dawley rat at 1 mg/kg, iv measured up to 24 hrs; format: ADME, organism-based; settings: in vivo
[21] = Unbound brain-to-plasma concentration ratio in Sprague-Dawley rat at 1 mg/kg, iv; format: ADME, organism-based; settings: read-out: K(p,uu,brain)
[22] = Unbound fraction in Sprague-Dawley rat brain at 1 mg/kg, iv; format: ADME, organism-based
[23] = Unbound fraction in Sprague-Dawley rat plasma at 1 mg/kg, iv; format: ADME, organism-based
[24] = target: Cytochrome P450 2C19 (Homo sapiens, UniProt P33261); experiment: Inhibition of CYP2C19 in human pooled liver microsomes using S-mephenytoin as substrate measured up to 20 mins by UHPLC-MS/MS analysis; format: ADME
Chain of Cytochrome P450 2C19 (P33261 whole entry): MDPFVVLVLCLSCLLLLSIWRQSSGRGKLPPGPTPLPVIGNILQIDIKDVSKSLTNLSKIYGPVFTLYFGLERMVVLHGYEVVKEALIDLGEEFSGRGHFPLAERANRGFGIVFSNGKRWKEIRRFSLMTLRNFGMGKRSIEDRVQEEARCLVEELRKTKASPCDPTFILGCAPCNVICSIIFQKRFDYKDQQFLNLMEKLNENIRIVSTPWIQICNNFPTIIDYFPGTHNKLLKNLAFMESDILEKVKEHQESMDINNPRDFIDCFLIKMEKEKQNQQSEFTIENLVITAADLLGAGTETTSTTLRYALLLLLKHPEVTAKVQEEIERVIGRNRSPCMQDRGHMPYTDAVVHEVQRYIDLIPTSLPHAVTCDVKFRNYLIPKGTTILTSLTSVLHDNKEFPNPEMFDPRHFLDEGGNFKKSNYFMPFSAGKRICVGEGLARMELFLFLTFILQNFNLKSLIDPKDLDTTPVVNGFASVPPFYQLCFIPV

[25] = Half life in ICR mouse at 1 mg/kg, iv measured up to 24 hrs; format: ADME, organism-based; settings: in vivo
[26] = Half life in Sprague-Dawley rat at 1 mg/kg, iv measured up to 24 hrs; format: ADME, organism-based; settings: in vivo
[27] = target: T1, Cytochrome P450 3A4; experiment: Inhibition of CYP3A4 in human pooled liver microsomes using testosterone as substrate measured up to 20 mins by UHPLC-MS/MS analysis; format: ADME
[28] = Drug concentration in Sprague-Dawley rat brain at 1 mg/kg, iv; format: ADME, organism-based; settings: in vivo
[29] = target: Voltage-gated inwardly rectifying potassium channel KCNH2 (Homo sapiens, UniProt Q12809); experiment: Inhibition of human ERG
Chain of Voltage-gated inwardly rectifying potassium channel KCNH2 (Q12809 whole entry): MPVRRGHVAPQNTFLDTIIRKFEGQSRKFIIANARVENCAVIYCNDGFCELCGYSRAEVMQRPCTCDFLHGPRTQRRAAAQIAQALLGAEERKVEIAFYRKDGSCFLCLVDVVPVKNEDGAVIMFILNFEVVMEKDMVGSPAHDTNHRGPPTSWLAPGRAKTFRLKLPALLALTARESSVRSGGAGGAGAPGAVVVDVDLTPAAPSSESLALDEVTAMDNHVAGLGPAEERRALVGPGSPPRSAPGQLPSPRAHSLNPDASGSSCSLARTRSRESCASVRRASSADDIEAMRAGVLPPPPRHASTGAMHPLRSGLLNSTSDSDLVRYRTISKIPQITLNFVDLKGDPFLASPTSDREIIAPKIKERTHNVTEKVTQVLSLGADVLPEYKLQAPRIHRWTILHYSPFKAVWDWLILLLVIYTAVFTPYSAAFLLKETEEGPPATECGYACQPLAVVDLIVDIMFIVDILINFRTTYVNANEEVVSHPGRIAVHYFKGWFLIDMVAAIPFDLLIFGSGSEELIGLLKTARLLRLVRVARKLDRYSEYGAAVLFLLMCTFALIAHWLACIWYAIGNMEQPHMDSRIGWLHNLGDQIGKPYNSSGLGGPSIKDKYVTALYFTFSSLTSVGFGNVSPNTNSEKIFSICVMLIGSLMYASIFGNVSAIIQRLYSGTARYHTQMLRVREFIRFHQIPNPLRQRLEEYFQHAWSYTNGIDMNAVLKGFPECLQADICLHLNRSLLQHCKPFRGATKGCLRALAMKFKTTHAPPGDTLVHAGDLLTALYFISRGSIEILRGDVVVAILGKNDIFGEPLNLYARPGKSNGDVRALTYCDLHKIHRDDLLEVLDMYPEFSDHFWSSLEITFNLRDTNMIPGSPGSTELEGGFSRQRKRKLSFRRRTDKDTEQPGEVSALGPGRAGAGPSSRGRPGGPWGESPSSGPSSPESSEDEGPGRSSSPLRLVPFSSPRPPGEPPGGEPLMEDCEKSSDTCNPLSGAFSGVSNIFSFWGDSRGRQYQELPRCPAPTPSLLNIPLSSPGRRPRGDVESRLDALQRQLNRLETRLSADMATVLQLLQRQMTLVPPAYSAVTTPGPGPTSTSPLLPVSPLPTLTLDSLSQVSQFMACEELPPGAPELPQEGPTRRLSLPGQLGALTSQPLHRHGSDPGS

[30] = Drug concentration in Sprague-Dawley rat plasma at 1 mg/kg, iv; format: ADME, organism-based; settings: in vivo
[31] = test system: Rattus norvegicus; experiment: Antiinflammatory activity in carrageenan-induced pain in Wistar rat model assessed as effect on hindpaw withdrawal threshold at 0.3 mg/kg, iv administered 4 hrs post-carrageenan challenge and measured for 30 mins after compound administration by Von-Frey test relative to control; format: functional; settings: dose mg/kg 0.03-0.3, 0.5 h
[32] = test system: Rattus norvegicus; experiment: Antiinflammatory activity in carrageenan-induced pain in iv dosed Wistar rat model assessed as effect on hindpaw withdrawal threshold administered 4 hrs post-carrageenan challenge and measured for 30 mins after compound administration by Von-Frey test; format: functional, organism-based; settings: dose mg/kg 0.03-0.3, time 30.0 min
[33] = Half life in human liver microsomes; format: ADME, Microsome
[34] = Half life in mouse liver microsomes; format: ADME, Microsome

Compound: CC(C)C[C@@H](NC(=O)[C@@H](Cc1ccccc1)NC(=O)[C@@H]1Cc2ccccc2CN1)C(=O)N[C@H](CCCCN)C(=O)N1CCOCC1
- EC50 [1]: > 1 nM

Compound: CC(C)C[C@@H](NC(=O)[C@@H](Cc1ccccc1)NC(=O)C1(NCCc2ccccc2)CC1)C(=O)N[C@H](CCCCN)C(=O)N1CCC(N)(C(=O)O)CC1
- EC50 [1]: > 1 nM

Compound: CC(C)C[C@@H](NC(=O)[C@@H](Cc1ccccc1)NC(=O)CNCc1ccccc1)C(=O)N[C@H](CCCCN)C(=O)N1CCOCC1
- EC50 [1]: > 1 nM

Compound: CC(C)C[C@@H](NC(=O)[C@@H](Cc1ccccc1)NC(=O)CNC[C@@H](c1ccccc1)C(C)C)C(=O)N[C@H](CCCCN)C(=O)N1CCC(N)(C(=O)O)CC1
- EC50 [1]: 0.0095 nM

Compound: CC(C)C[C@@H](NC(=O)[C@@H](Cc1ccccc1)NC(=O)CN[C@H]1C[C@@H]1c1ccccc1)C(=O)N[C@H](CCCCN)C(=O)N1CCOCC1
- EC50 [1]: 0.08 nM

Compound: CC(C)C[C@@H](NC(=O)[C@@H](Cc1ccccc1)NC(=O)CNC[C@@H](C)c1ccccc1)C(=O)N[C@H](CCCCN)C(=O)N1CCC(N)(C(=O)O)CC1
- EC50 [1]: 0.0155 nM

Compound: CC(C)C[C@@H](NC(=O)[C@@H](Cc1ccccc1)NC(=O)CNCCCc1ccccc1)C(=O)N[C@H](CCCCN)C(=O)N1CCOCC1
- EC50 [1]: 0.045 nM

Compound: CC(C)C[C@@H](NC(=O)[C@@H](Cc1ccccc1)NC(=O)[C@@H](C)NCCc1ccccc1)C(=O)N[C@H](CCCCN)C(=O)N1CCC(N)(C(=O)O)CC1
- EC50 [1]: > 1 nM

Compound: CC(C)C[C@@H](NC(=O)[C@@H](Cc1ccccc1)NC(=O)CNCC1(c2ccccc2)CC1)C(=O)N[C@H](CCCCN)C(=O)N1CCC(N)(C(=O)O)CC1
- EC50 [1]: 0.057 nM

Compound: CC(C)C[C@@H](NC(=O)[C@@H](Cc1ccccc1)NC(=O)CNCCc1ccccc1)C(=O)N[C@H](CCCCN)C(=O)N1CCOCC1
- EC50 [1]: 0.048 nM

Compound: CC(C)C[C@@H](NC(=O)[C@@H](Cc1ccccc1)NC(=O)CNCC(C)(C)c1ccccc1)C(=O)N[C@H](CCCCN)C(=O)N1CCC(N)(C(=O)O)CC1
- EC50 [1]: 0.078 nM

Compound: CNC(=O)NC1CCN(C(=O)[C@@H](CCCCN)NC(=O)[C@@H](CC(C)C)NC(=O)[C@@H](Cc2ccccc2)NC(=O)CNC[C@H](C)c2ccccc2)CC1 (H-[Gly(N-(2R-Ph-propyl))][dF][dL][dK]-X1)
- AUC(0-t) at 24 h [2]: 2620 ng·h/mL
- EC50 [3]: > 50000 nM
- clearance [4]: 10.1 mL/min/kg
- IC50 [5]: > 30000 nM
- IC50 [6]: > 30000 nM
- Vd [7]: 0.297 L/kg
- AUC(0-t) at 24 h [8]: 1550 ng·h/mL
- IC50 [9]: > 30000 nM
- Activity [10]: 28.9%
- half-life [11]: > 4.47 h
- clearance [12]: 3.1 mL/min/kg
- half-life [13]: 3.6 h
- AUC(0-t) at 24 h [14]: 1660 ng·h/mL
- Vd [15]: 4.51 L/kg
- Vd [16]: 1.24 L/kg
- half-life [17]: 4.45 h
- EC50 [18]: > 50000 nM
- IC50 [19]: > 30000 nM
- clearance [20]: 10.5 mL/min/kg
- Kp uu [21]: 0.006
- fraction unbound [22]: 0.0258
- fraction unbound [23]: 0.211
- IC50 [24]: > 30000 nM
- half-life [25]: 0.34 h
- half-life [26]: 4.78 h
- IC50 [27]: > 30000 nM
- EC50 [1]: 0.00053 nM
- Ct [28]: 57.2 ng/g
- IC50 [29]: > 30000 nM
- Cp [30]: 1144 ng/mL
- Activity [31]: 66.7%
- Activity [32]: Dose-dependent effect
- half-life [33]: 0.667 h
- half-life [34]: 1.92 h

Compound: CC(C)C[C@@H](NC(=O)[C@@H](Cc1ccccc1)NC(=O)CNCCc1ccccc1)C(=O)N[C@H](CCCCN)C(=O)N1CCC(N)(C(=O)O)CC1 (H-[Gly(NCH2CH2Ph)][dF][dL][dK]-{Piperidin1yl(4-NH2,4-COOH)})
- EC50 [1]: 0.054 nM

Compound: CC(C)C[C@@H](NC(=O)[C@@H](Cc1ccccc1)NC(=O)CNC1Cc2ccccc2C1)C(=O)N[C@H](CCCCN)C(=O)N1CCOCC1 (H-[N(Indan-2-yl)Gly][dF][dL][dK]-Morpholide)
- EC50 [1]: > 1 nM

Compound: CCC(CNCC(=O)N[C@H](Cc1ccccc1)C(=O)N[C@H](CC(C)C)C(=O)N[C@H](CCCCN)C(=O)N1CCC(N)(C(=O)O)CC1)c1ccccc1 (mixture of isomers)
- EC50 [1]: 0.0029 nM

Compound: CC(C)C[C@@H](NC(=O)[C@@H](Cc1ccccc1)NC(=O)[C@H](N)Cc1ccccc1)C(=O)N[C@H](CCCCN)C(=O)N1CCC(N)(C(=O)O)CC1 [DIFELIKEFALIN]
- EC50 [1]: 0.00262 nM
- Activity [31]: 61.9%

Compound: CC(C)C[C@@H](NC(=O)[C@@H](Cc1ccccc1)NC(=O)CNC[C@H](C)c1ccccc1)C(=O)N[C@H](CCCCN)C(=O)N1CCC(N)(C(=O)O)CC1 [RIMINKEFON]
- EC50 [1]: 0.0014 nM
